In patent US9453226B2, “Protection of cells from Alu-RNA-induced degeneration and inhibitors for protecting cells” (UNIVERSITY OF KENTUCKY RESEARCH FOUNDATION, priority 2011, dated 2016):
Entries after “also recorded” stand apart in the source; their conditions may differ. d = 2'-deoxy (DNA); r = 2'-OH (RNA)

Key:
RPE = experiment: Alu RNA-induced RPE degeneration in wild-type mice, inhibitors given intravitreously; type: in vivo; conditions: subretinal Alu RNA 1 μg; peptide 2 μg intravitreous
human RPE cells = human RPE cells transfected with pAlu
Procedure: All cell cultures were maintained at 37° C. and 5% CO2. Primary mouse RPE cells were isolated as previously described (Yang et al., 2009) and grown in Dulbecco Modified Eagle Medium (DMEM) supplemented with 20% FBS and standard antibiotics concentrations. Primary human RPE cells were isolated as previously described (Yang et al., 2008) and maintained in DMEM supplemented with 10% FBS and antibiotics. HeLa cells were maintained in DMEM supplemented with 20% FBS and standard antibiotics concentrations. THP-1 cells were cultured in RPMI 1640 medium supplemented with 10% FBS and antibiotics.
MTS assays were performed using the CellTiter 96 AQueous One Solution Cell Proliferation Assay (Promega) according to the manufacturer's instructions. For examining the cytoprotective effect of glycine in Alu RNA induced cell death, human RPE cells were transfected with pNull/pAlu. At 6 h post-transfection the cells were incubated with complete media containing glycine (5 mM) or vehicle, and cell viability was assessed after 24 h. Similarly, human RPE cells primed with LPS (5 μg/ml for 6 h) were treated with ATP (25 μM) in the presence of glycine containing media (5 mM). 30 min post ATP cell viability was assessed as described above.
MTS assays were performed using the CellTiter 96 AQueous One Solution Cell Proliferation Assay (Promega) according to the manufacturer's instructions.

NLRP3 = NLRP3 knockdown in HEK293 cells transfected with an NLRP3 expression vector; type: cell-based; conditions: compared to control siRNAs
Procedure: (§1) Tissues or cells were homogenized in lysis buffer (10 mM Tris base, pH 7.4, 150 mM NaCl, 1 mM EDTA, 1 mM EGTA, 1% Triton X-100, 0.5% NP-40, protease and phosphatase inhibitor cocktail (Roche)). Protein concentrations were determined using a Bradford assay kit (Bio-Rad) with bovine serum albumin as a standard. Proteins (40-100 μg) were run on NuPAGE Bis-Tris gels (Invitrogen) and transferred to Immun-Blot PVDF membranes (Bio-Rad). Cells were scraped in hot Laemmli buffer (62.5 mM Tris base, pH 6.8, 2% SDS, 5% 2-Mercaptoethanol, 10% Glycerol, 0.01% Bromophenol Blue). Samples were boiled and run on 4-20% NuPAGE Tris-Glycine gels (Invitrogen). The transferred membranes were blocked for 1 h at RT and incubated with antibodies against human Caspase-1 (1:500; Invitrogen), mouse Caspase 1 (1:500; MBL), NLRP3 (1:1000; Enzo Life Sciences), PYCARD (1:1000, RayBiotech), phospho-IRAK1 (S376) (1:500, Thermo Scientific), phospho-IRAK4 (T345) (1:500, AbboMax), DICER1 (1:2,000; Bethyl), MyD88 (1:1,000; Cell Signaling), and mouse IL-18 (1:200; MBL) at 4° C. overnight. Protein loading was assessed by immunoblotting using an anti-Vinculin antibody (1:1,000; Sigma-Aldrich). The secondary antibodies were used (1:5,000) for 1 h at RT. The signal was visualized by enhanced chemiluminescence (ECL plus) and captured by VisionWorksLS Image Acquisition and Analysis software (Version 6.7.2, UVP, LLC).

VDAC3 = VDAC3 mRNA knockdown in human RPE cells; type: cell-based; conditions: compared to control (Luc) siRNA
Source text: (§2) Total RNA was extracted from tissues or cells using Trizol reagent (Invitrogen) according to manufacturer's recommendations, DNase treated and reverse transcribed (QuantiTect, Qiagen). The RT products (cDNA) were amplified by real-time quantitative PCR (Applied Biosystems 7900 HT Fast Real-Time PCR system) with Power SYBR green Master Mix. Oligonucleotide primers specific for human IL1B (forward 5′-[…]-3′ and reverse 5′-[…]-3′), human IL18 (forward 5′-[…]-3′ and reverse 5′-[…]-3′), human NLRP3 (forward 5′-[…]-3′ and reverse 5′-[…]-3′), human PYCARD (forward 5′-[…]-3′ and reverse 5′-[…]-3′), human VDAC1 (forward 5′-[…]-3′ and reverse 5′-[…]-3′), human VDAC2 (forward 5′-[…]-3′ and reverse 5′-[…]-3′), human VDAC3 (forward 5′-[…]-3′ and reverse 5′-[…]-3′), human 18S rRNA (forward 5′-[…]-3′ and reverse 5′-[…]-3′), mouse Myd88 (forward 5′-[…]-3′ and reverse 5′-[…]-3′), mouse Nlrp3 (forward 5′-[…]-3′ and reverse 5′-[…]-3′), mouse Il18 (forward 5′-[…]-3′ and reverse 5′-[…]-3′), and mouse 18S rRNA (forward 5′-[…]-3′ and reverse 5′-[…]-3′) were used. […] For negative controls, no RT products were used as templates in the QPCR and verified by the absence of gel-detected bands. Relative expressions of target genes were determined by the 2^−ΔΔCt method.

IRAK1/4 phosphorylation = IRAK1/4 phosphorylation in human RPE cells (Western blot); type: cell-based; conditions: human RPE cells treated with DICER1 antisense
Procedure: (§3) Protein abundance was assessed by Western blot analysis using antibodies against Caspase-1 (1:500; Invitrogen), pIRAK1 (1:500; Thermo Scientific), pIRAK4 (1:500, Abbomax), PYCARD (1:200, Santa Cruz Biotechnology), NLRP3 (1:500, Enzo Life Sciences) and Vinculin (1:1,000; Sigma-Aldrich). Caspase-1 activity was visualized using Caspalux1 E1D2 (Oncolmmunin) according to manufacturer's instructions.
as §1

Caspase-1 = molecular target: T1, Caspase-1 (Homo sapiens, UniProt P29466); experiment: Caspase-1 activation in human RPE cells (Western blot p20, Caspalux substrate cleavage); type: cell-based; conditions: compared to control AS
T1 construct: Primary human RPE cells were isolated as previously described; endogenous in cells; host or cells: primary human RPE cells
T1 sequence (P29466 120-297 limits assumed): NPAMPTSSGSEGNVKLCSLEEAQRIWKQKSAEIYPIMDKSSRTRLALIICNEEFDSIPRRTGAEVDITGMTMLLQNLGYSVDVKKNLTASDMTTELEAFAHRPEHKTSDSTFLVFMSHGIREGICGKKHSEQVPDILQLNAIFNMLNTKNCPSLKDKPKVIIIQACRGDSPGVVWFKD
T1 sequence (P29466 317-404 limits assumed): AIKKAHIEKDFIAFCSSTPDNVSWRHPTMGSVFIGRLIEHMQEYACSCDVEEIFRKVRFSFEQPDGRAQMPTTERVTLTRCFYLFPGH
Procedure: as §3, §1
Caspase-1 activity. Caspase-1 activity was visualized by incubating cells with Caspalux1E1D2 reagent (Oncolmmunin) according to the manufacturer's instructions. Caspalux1E1D2 signal was quantified reading the fluorescence (excitation 552 nm, emission 580 nm) using a Synergy 4 reader (Biotek). Quantification of fluorescence from images was performed by converting images into grayscale in Adobe Photoshop CSS, and measuring the integrated density of black and white images using ImageJ software (NIH) (Bogdanovich et al., 2008).

DICER1 = DICER1 abundance after antisense treatment of human RPE cells; type: cell-based
Procedure: as §1

PYCARD = PYCARD knockdown in human RPE cells; type: cell-based; conditions: compared to control siRNAs
Procedure: as §1

NLRP3 and IL18 mRNAs = experiment: NLRP3 and IL18 mRNA in human RPE cells (real-time RT-PCR); type: cell-based
Source text: Transcript abundance was quantified by real-time RT-PCR using an Applied Biosystems 7900 HT Fast Real-Time PCR system by the 2^−ΔΔCt method.
as §2, with “used. The QPCR cycling conditions were 50° C. for 2 min, 95° C. for 10 min followed by 40 cycles of a two-step amplification program (95° C. for 15 s and 58° C. for 1 min). At the end of the amplification, melting curve analysis was applied using the dissociation protocol from the Sequence Detection system to exclude contamination with unspecific PCR products.” for “used.”

mitochondrial ROS = experiment: Mitochondrial ROS in human RPE cells (MitoSOX Red); type: cell-based
Procedure: Cellular ROS production was assessed using the ROS-specific probe 2′7′-dichlorodihydrofluorescin diacetate (H2DCFDA, BioChemica, Fluka). Mitochondrial ROS production was assessed using MitoSOX™ Red (Invitrogen). Sub-confluent human RPE cells were transfected with pNull or pAlu. After 24 h cells were loaded for 10 min at 37° C. with 10 μM H2DCFDA or MitoSOX™ Red (Invitrogen) mitochondrial superoxide indicator for live-cell imaging and washed twice with PBS. For H2DCFDA, fluorescence was recorded in 96-well plate using with a Synergy 4 reader (Biotek) using a FITC filter (excitation 485 nm, emission 538 nm). To visualize respiring mitochondria for colocalization with the mitochondrial ROS signal, after PBS wash cells were incubated with MitoTracker Deep Red™ (Invitrogen) for 30 min at 37° C. and then washed twice with PBS. The fluorescent signals were detected using Leica SP-5 or Zeiss Axio Observer Z1 microscopes. Phagosomal ROS production was assessed using the Fc-OXYBURST Green™ assay (Invitrogen). Sub-confluent human RPE cells were transfected with pNull or pAlu, or treated with PMA (0.5 μg/ml; Sigma-Aldrich). […] The total fluorescence from the cells was measured immediately after adding Fc-OXYBURST Green™ with a Synergy 4 reader (Biotek) using FITC filter (excitation 485 nm, emission 538 nm).

VDAC1 = VDAC1 mRNA knockdown in human RPE cells; type: cell-based; conditions: compared to control (Luc) siRNA
Source text: as §2

VDAC2 = VDAC2 mRNA knockdown in human RPE cells; type: cell-based; conditions: compared to control (Luc) siRNA
Source text: as §2

DRQIKIWFQNRRMKWKKRDVLPGTCVWSIASE
Alu RNA-induced RPE degeneration (RPE): blocked

5′-GUUUGACUAUCUGUUCUdTdT-3′ (GUUUGACUAUCUGUUCUTT; siRNA; sugars from the 5' end r17 d2, backbone not given here) [NLRP3 siRNA]
pAlu-induced human RPE cell death / loss of cell viability (human RPE cells): rescued
abundance of NLRP3 (NLRP3): reduced

5′-GCUUUAAUCGAUGGGAAdTdT-3′ [VDAC3 siRNA]
abundance of VDAC3 mRNA (VDAC3): reduced

5′-GCUGACCTTTTTGCTUCUCA-3′ [DICER1 AS]
IRAK1 and IRAK4 phosphorylation (IRAK1/4 phosphorylation): increases IRAK1 and IRAK4 phosphorylation
cleavage activity of Caspase-1 (Caspalux) (Caspase-1): increases cleavage activity of Caspase-1
DICER1 abundance (DICER1): reduces DICER1

5′-GAAGCUCUUCAGUUUCAdTdT-3′ (GAAGCUCUUCAGUUUCATT; siRNA; sugars from the 5' end r17 d2, backbone not given here) [PYCARD siRNA]
pAlu-induced human RPE cell death / loss of cell viability (human RPE cells): rescued
abundance of PYCARD (PYCARD): reduced

5′-CGGAAUAGCAGCCAAGUdTdT-3′ [VDAC1 siRNA]
pAlu-induced NLRP3 and IL18 mRNA upregulation (NLRP3 and IL18 mRNAs): prevent; also recorded: impaired
pAlu-induced mitochondrial ROS generation (mitochondrial ROS): prevent; also recorded: impaired
abundance of VDAC1 mRNA (VDAC1): reduced

5′-CCCUGGAGUUGGAGGCUdTdT-3′ [VDAC2 siRNA]
pAlu-induced NLRP3 and IL18 mRNA upregulation (NLRP3 and IL18 mRNAs): prevent; also recorded: impaired
pAlu-induced mitochondrial ROS generation (mitochondrial ROS): prevent; also recorded: impaired
abundance of VDAC2 mRNA (VDAC2): reduced
